Experimental data reported in ChEMBL document CHEMBL3352057, “Novel fluorinated pyrrolo[1,2-a]pyrazine-2,6-dione derivatives: synthesis and anticonvulsant evaluation in animal models of epilepsy” (Bioorg Med Chem, 2014).
Activity calls are given as the source filed them. No cut-off for these calls is given here.

What was measured:
Mus musculus [1] = assay: Anticonvulsant activity in albino CF1 mouse assessed as protection against maximal electroshock-induced seizures at 100 mg/kg, ip measured after 0.5 hr; format: functional, organism-based; design: dose 100 mg/kg
Mus musculus [2] = assay: Neurotoxicity in albino CF1 mouse at 100 mg/kg, ip measured after 4 hrs; format: toxicity, organism-based; design: dose 100 mg/kg, route intraperitoneal; conditions: in vivo
Mus musculus [3] = assay: Anticonvulsant activity in albino CF1 mouse assessed as protection against subcutaneous metrazol-induced seizures at 300 mg/kg, ip measured after 0.5 hr; format: functional, organism-based; design: dose 300 mg/kg
Mus musculus [4] = assay: Anticonvulsant activity in albino CF1 mouse assessed as protection against maximal electroshock-induced seizures at 100 mg/kg, ip measured after 0.25 hr; format: functional, organism-based; design: dose 100 mg/kg
Mus musculus [5] = assay: Anticonvulsant activity in albino CF1 mouse assessed as protection against subcutaneous metrazol-induced seizures at 100 mg/kg, ip measured after 4 hrs; format: functional, organism-based; design: dose 100 mg/kg
Mus musculus [6] = assay: Anticonvulsant activity in albino CF1 mouse assessed as protection against subcutaneous metrazol-induced seizures at 100 mg/kg, ip measured after 0.5 hr; format: functional, organism-based; design: dose 100 mg/kg
Mus musculus [7] = assay: Neurotoxicity in albino CF1 mouse at 300 mg/kg, ip measured after 0.5 hr; format: toxicity, organism-based; design: dose 300 mg/kg, route intraperitoneal; conditions: in vivo
Mus musculus [8] = assay: Anticonvulsant activity in albino CF1 mouse assessed as protection against maximal electroshock-induced seizures at 100 mg/kg, ip measured after 1 hr; format: functional, organism-based; design: dose 100 mg/kg
Mus musculus [9] = assay: Anticonvulsant activity in albino CF1 mouse assessed as protection against maximal electroshock-induced seizures at 100 mg/kg, ip measured after 4 hrs; format: functional, organism-based; design: dose 100 mg/kg
Mus musculus [10] = assay: Neurotoxicity in albino CF1 mouse at 100 mg/kg, ip measured after 0.25 hr; format: toxicity, organism-based; design: dose 100 mg/kg, route intraperitoneal; conditions: in vivo
Mus musculus [11] = assay: Neurotoxicity in albino CF1 mouse at 100 mg/kg, ip measured after 0.5 hr; format: toxicity, organism-based; design: dose 100 mg/kg, route intraperitoneal; conditions: in vivo
Mus musculus [12] = assay: Neurotoxicity in albino CF1 mouse at 100 mg/kg, ip measured after 1 hr; format: toxicity, organism-based; design: dose 100 mg/kg, route intraperitoneal; conditions: in vivo
Mus musculus [13] = assay: Anticonvulsant activity in ip dosed albino CF1 mouse assessed as protection against 6 Hz current-induced seizures measured as time to peak effect; format: functional
Mus musculus [14] = assay: Anticonvulsant activity in ip dosed albino CF1 mouse assessed as protection against maximal electroshock-induced seizures; format: functional
Mus musculus [15] = assay: Neurotoxicity in ip dosed 6 Hz current-induced seizure albino CF1 mouse model; format: toxicity, organism-based; conditions: in vivo
Mus musculus [16] = assay: Anticonvulsant activity in ip dosed albino CF1 mouse assessed as protection against 6 Hz current-induced seizures; format: functional
Mus musculus [17] = assay: Anticonvulsant activity in ip dosed albino CF1 mouse assessed as protection against subcutaneous metrazol-induced seizures; format: functional
Mus musculus [18] = assay: Anticonvulsant activity in ip dosed albino CF1 mouse assessed as protection against maximal electroshock-induced seizures measured as time to peak effect; format: functional
[19] = Neurotoxicity in ip dosed albino CF1 mouse; format: toxicity, organism-based; conditions: in vivo
Rattus norvegicus [20] = assay: Anticonvulsant activity in ip dosed Sprague-Dawley rat assessed as protection against maximal electroshock-induced seizures measured as time to peak effect; format: functional
[21] = Protective index, ratio of TD50 for neurotoxicity in ip dosed Sprague-Dawley rat to ED50 for anticonvulsant activity in ip dosed MES Sprague-Dawley rat model; format: toxicity, organism-based; conditions: in vivo, read-out: Ratio TD50/ED50
[22] = Neurotoxicity in ip dosed Sprague-Dawley rat; format: toxicity, organism-based; conditions: in vivo
Rattus norvegicus [23] = assay: Anticonvulsant activity in ip dosed Sprague-Dawley rat assessed as protection against maximal electroshock-induced seizures; format: functional
Rattus norvegicus [24] = assay: Anticonvulsant activity in ip dosed Sprague-Dawley rat assessed as protection against subcutaneous metrazol-induced seizures; format: functional
Rattus norvegicus [25] = assay: Anticonvulsant activity in Sprague-Dawley rat assessed as protection against maximal electroshock-induced seizures at 30 mg/kg, po measured after 2 hrs; format: functional, organism-based; design: dose 30 mg/kg
Mus musculus [26] = assay: Anticonvulsant activity in albino CF1 mouse assessed as protection against subcutaneous metrazol-induced seizures at 100 mg/kg, ip measured after 1 hr; format: functional, organism-based; design: dose 100 mg/kg
Rattus norvegicus [27] = assay: Neurotoxicity in MES Sprague-Dawley rat model at 30 mg/kg, po measured after 4 hrs; format: toxicity, organism-based; design: dose 30 mg/kg, route oral; conditions: in vivo
Rattus norvegicus [28] = assay: Neurotoxicity in MES Sprague-Dawley rat model at 30 mg/kg, ip measured after 0.25 hr; format: toxicity, organism-based; design: dose 30 mg/kg, route intraperitoneal; conditions: in vivo
Rattus norvegicus [29] = assay: Neurotoxicity in MES Sprague-Dawley rat model at 30 mg/kg, po measured after 0.5 hr; format: toxicity, organism-based; design: dose 30 mg/kg, route oral; conditions: in vivo
Rattus norvegicus [30] = assay: Neurotoxicity in MES Sprague-Dawley rat model at 30 mg/kg, ip measured after 1 hr; format: toxicity, organism-based; design: dose 30 mg/kg, route intraperitoneal; conditions: in vivo
Rattus norvegicus [31] = assay: Anticonvulsant activity in Sprague-Dawley rat assessed as protection against maximal electroshock-induced seizures at 30 mg/kg, ip measured after 0.25 hr; format: functional, organism-based; design: dose 30 mg/kg
Rattus norvegicus [32] = assay: Anticonvulsant activity in Sprague-Dawley rat assessed as protection against maximal electroshock-induced seizures at 30 mg/kg, po measured after 4 hrs; format: functional, organism-based; design: dose 30 mg/kg
Rattus norvegicus [33] = assay: Neurotoxicity in MES Sprague-Dawley rat model at 30 mg/kg, ip measured after 4 hrs; format: toxicity, organism-based; design: dose 30 mg/kg, route intraperitoneal; conditions: in vivo
Rattus norvegicus [34] = assay: Anticonvulsant activity in Sprague-Dawley rat assessed as protection against maximal electroshock-induced seizures at 30 mg/kg, ip measured after 1 hr; format: functional, organism-based; design: dose 30 mg/kg
Rattus norvegicus [35] = assay: Neurotoxicity in MES Sprague-Dawley rat model at 30 mg/kg, ip measured after 0.5 hr; format: toxicity, organism-based; design: dose 30 mg/kg, route intraperitoneal; conditions: in vivo
Rattus norvegicus [36] = assay: Anticonvulsant activity in Sprague-Dawley rat assessed as protection against maximal electroshock-induced seizures at 30 mg/kg, ip measured after 2 hrs; format: functional, organism-based; design: dose 30 mg/kg
Rattus norvegicus [37] = assay: Neurotoxicity in MES Sprague-Dawley rat model at 30 mg/kg, po measured after 1 hr; format: toxicity, organism-based; design: dose 30 mg/kg, route oral; conditions: in vivo
Rattus norvegicus [38] = assay: Anticonvulsant activity in Sprague-Dawley rat assessed as protection against maximal electroshock-induced seizures at 30 mg/kg, ip measured after 0.5 hr; format: functional, organism-based; design: dose 30 mg/kg
Rattus norvegicus [39] = assay: Neurotoxicity in MES Sprague-Dawley rat model at 30 mg/kg, ip measured after 2 hrs; format: toxicity, organism-based; design: dose 30 mg/kg, route intraperitoneal; conditions: in vivo
Rattus norvegicus [40] = assay: Anticonvulsant activity in Sprague-Dawley rat assessed as protection against maximal electroshock-induced seizures at 30 mg/kg, ip measured after 4 hrs; format: functional, organism-based; design: dose 30 mg/kg
Mus musculus [41] = assay: Anticonvulsant activity in albino CF1 mouse assessed as protection against subcutaneous metrazol-induced seizures at 100 mg/kg, ip measured after 0.25 hr; format: functional, organism-based; design: dose 100 mg/kg
Rattus norvegicus [42] = assay: Anticonvulsant activity in Sprague-Dawley rat assessed as protection against maximal electroshock-induced seizures at 30 mg/kg, po measured after 0.25 hr; format: functional, organism-based; design: dose 30 mg/kg
Rattus norvegicus [43] = assay: Anticonvulsant activity in Sprague-Dawley rat assessed as protection against maximal electroshock-induced seizures at 30 mg/kg, po measured after 0.5 hr; format: functional, organism-based; design: dose 30 mg/kg
Rattus norvegicus [44] = assay: Neurotoxicity in MES Sprague-Dawley rat model at 30 mg/kg, po measured after 2 hrs; format: toxicity, organism-based; design: dose 30 mg/kg, route oral; conditions: in vivo
Rattus norvegicus [45] = assay: Anticonvulsant activity in Sprague-Dawley rat assessed as protection against maximal electroshock-induced seizures at 30 mg/kg, po measured after 1 hr; format: functional, organism-based; design: dose 30 mg/kg
Rattus norvegicus [46] = assay: Neurotoxicity in MES Sprague-Dawley rat model at 30 mg/kg, po measured after 0.25 hr; format: toxicity, organism-based; design: dose 30 mg/kg, route oral; conditions: in vivo

## O=C1NC(=O)[C@@H](c2cccc(C(F)(F)F)c2)N2CCC[C@@H]12
Mus musculus [1]
  Activity: inactive
Mus musculus [2]
  Activity: Non-toxic
Mus musculus [3]
  Activity: Active
Mus musculus [4]
  Activity: inactive
Mus musculus [5]
  Activity: inactive
Mus musculus [6]
  Activity: inactive
Mus musculus [7]
  Activity: Toxic
Mus musculus [8]
  Activity: inactive
Mus musculus [9]
  Activity: inactive
Mus musculus [10]
  Activity: Toxic
Mus musculus [11]
  Activity: Non-toxic
Mus musculus [12]
  Activity: Non-toxic

## CCC1(C)CC(=O)NC1=O (stereo unspecified) [ETHOSUXIMIDE]
Mus musculus [13]
  Time: 0.25 h
Mus musculus [14]
  ED50: > 3550 µmol/kg
Mus musculus [15]
  ED50: 166 µmol/kg
Mus musculus [16]
  ED50: 1180 µmol/kg
Mus musculus [17]
  ED50: 964 µmol/kg
Mus musculus [18]
  Time: 0.25 h
[19]
  TD50: 2420 µmol/kg

## O=C1NC(=O)C(c2ccccc2)(c2ccccc2)N1 [PHENYTOIN]
Rattus norvegicus [20]
  Time: 0.25 h
[21]
  selectivity ratio: 6.4
[22]
  TD50: 66 µmol/kg
Rattus norvegicus [23]
  ED50: 10 µmol/kg
Rattus norvegicus [24]
  ED50: > 430 µmol/kg

## O=C1NC(=O)[C@@H]2CCCN2[C@H]1c1ccccc1F
Rattus norvegicus [25]
  Activity: inactive
Mus musculus [26]
  Activity: inactive
Rattus norvegicus [27]
  Activity: Non-toxic
Mus musculus [1]
  Activity: Active
Rattus norvegicus [28]
  Activity: Non-toxic
Mus musculus [2]
  Activity: Non-toxic
Rattus norvegicus [29]
  Activity: Non-toxic
Rattus norvegicus [30]
  Activity: Non-toxic
Rattus norvegicus [31]
  Activity: inactive
Mus musculus [4]
  Activity: inactive
Rattus norvegicus [32]
  Activity: inactive
Rattus norvegicus [33]
  Activity: Non-toxic
Rattus norvegicus [34]
  Activity: inactive
Rattus norvegicus [35]
  Activity: Non-toxic
Mus musculus [5]
  Activity: inactive
Rattus norvegicus [36]
  Activity: inactive
Rattus norvegicus [37]
  Activity: Non-toxic
Mus musculus [6]
  Activity: inactive
Rattus norvegicus [38]
  Activity: inactive
Rattus norvegicus [39]
  Activity: Non-toxic
Mus musculus [8]
  Activity: inactive
Rattus norvegicus [40]
  Activity: inactive
Mus musculus [41]
  Activity: Active
Mus musculus [9]
  Activity: inactive
Mus musculus [10]
  Activity: Toxic
Rattus norvegicus [42]
  Activity: inactive
Mus musculus [11]
  Activity: Non-toxic
Rattus norvegicus [43]
  Activity: inactive
Rattus norvegicus [44]
  Activity: Non-toxic
Mus musculus [12]
  Activity: Non-toxic
Rattus norvegicus [45]
  Activity: inactive
Rattus norvegicus [46]
  Activity: Non-toxic
